Patent publication US10273235B2, “Compositions and methods for inhibiting β-lactamase” (LegoChem Biosciences, Inc., priority 2015, dated 2019)
“And” between values parts separate entries of the source, which are not always exact repeats. Identical values can stand only once. Like-named read-outs stand apart in the source and are kept apart here.

Experiments:
Format in all cases: cell-based
[1] = tested on: K. pneumoniae MP14; test: BLI potentiation MIC, K. pneumoniae MP14; conditions: no BLI, incubation 19 h; for MIC: Klebsiella pneumoniae, MP14, 19 h
Description: (§1) MIC90 (μg/mL) is the lowest concentration of an antibiotic that will inhibit the visible growth of 90% of microorganisms after incubation as compared with a control group to which the antibiotic is not treated.
(§2) MIC values were measured by the broth microdilution method developed by the Clinical and Laboratory Standards Institute (CLSI) (see CLSI M07-A9, Methods for Dilution Antimicrobial Susceptibility Test for Bacteria that Grow Aerobically; Approved Standard-Ninth Edition (2012): CLSI, Villanova, Pa.). The in vitro antibacterial activity was measured with respect to the following 9 clinical isolates: P. aeruginosa (3 strains); K. pneumoniae (6 strains). The in vitro antibacterial activity of selected compounds was measured with respect to the following 15 clinical isolates: K. pneumoniae (15 strains).

[2] = tested on: K. pneumoniae 5576; test: BLI potentiation MIC, K. pneumoniae 5576 (SHV-11, CMY-2, DHA-1, TEM-1); conditions: no BLI, incubation 19 h; for MIC: Klebsiella pneumoniae, 5576, 19 h
Description: as §1, §2

[3] = tested on: K. pneumoniae 5117; test: BLI potentiation MIC, K. pneumoniae 5117 (SHV-11, TEM-1); conditions: no BLI, incubation 19 h; for MIC: Klebsiella pneumoniae, 5117, 19 h
Description: as §1, §2

[4] = tested on: K. pneumoniae 89; test: BLI potentiation MIC, K. pneumoniae 89; conditions: no BLI, incubation 19 h
Description: as §1, §2

[5] = tested on: K. pneumoniae 5216; test: BLI potentiation MIC, K. pneumoniae 5216 (TEM-1A); conditions: no BLI, incubation 19 h; for MIC: Klebsiella pneumoniae, 5216, 19 h
Description: as §1, §2

[6] = tested on: P. aeruginosa ARC3506; test: BLI potentiation MIC, P. aeruginosa ARC3506 (VEB-1, OXA-10, OprD−, AmpC); conditions: Pseudomonas aeruginosa, ARC3506, no BLI, incubation 19 h
Description: as §1, §2

[7] = tested on: K. pneumoniae 101; test: BLI potentiation MIC, K. pneumoniae 101; conditions: no BLI, incubation 19 h; for MIC: Klebsiella pneumoniae, 101, 19 h
Description: as §1, §2

[8] = tested on: K. pneumoniae 100; test: BLI potentiation MIC, K. pneumoniae 100; conditions: Klebsiella pneumoniae, 100, no BLI, incubation 19 h
Description: as §1, §2

[9] = tested on: E. coli K0519020; test: MIC of strain used for extraction of enzymes, E. coli K0519020 (CTX-M-15, TEM-1, OXA-1, AmpC (NC_000913)); conditions: Escherichia coli, K0519020, no BLI
[10] = tested on: K. pneumoniae 6839; test: BLI potentiation MIC, K. pneumoniae 6839 (SHV-11, SHV-12, DHA-1); conditions: no BLI, incubation 19 h; for MIC: Klebsiella pneumoniae, 6839, 19 h
Description: as §1, §2

[11] = tested on: K. pneumoniae 5971(KOX); test: BLI potentiation MIC, K. pneumoniae 5971(KOX); conditions: no BLI, incubation 19 h; for MIC: Klebsiella pneumoniae, 19 h
Description: as §1, §2

[12] = tested on: K. pneumoniae 7586; test: BLI potentiation MIC, K. pneumoniae 7586; conditions: no BLI, incubation 19 h
Description: as §1, §2

[13] = tested on: K. pneumoniae KU2; test: BLI potentiation MIC, K. pneumoniae KU2; conditions: Klebsiella pneumoniae, no BLI, incubation 19 h
Description: as §1, §2

[14] = tested on: P. aeruginosa ARC3514; test: BLI potentiation MIC, P. aeruginosa ARC3514 (KPC-2, OprD−, AmpC); conditions: no BLI, incubation 19 h; for MIC: Pseudomonas aeruginosa, ARC3514, 19 h
Description: as §1, §2

[15] = tested on: E. coli TOPDXA048; test: MIC of strain used for extraction of enzymes, E. coli TOPDXA048 (OXA-48, TEM-116, AmpC (NC_000913)); conditions: Escherichia coli
[16] = tested on: E. coli ECO200; test: MIC of strain used for extraction of enzymes, E. coli ECO200 (NDM-1, TEM-1, CTX-M-15, EC (AmpC), OXA-2 type); conditions: Escherichia coli
[17] = tested on: K. pneumoniae NDM-506; test: BLI potentiation MIC, K. pneumoniae NDM-506; conditions: Klebsiella pneumoniae, NDM506, no BLI, incubation 19 h
Description: as §1, §2

[18] = tested on: E. aerogenes K9911729; test: MIC of strain used for extraction of enzymes, E. aerogenes K9911729 (CMY-10, TEM-1, SHV-12, AmpC (DQ478697)); conditions: Klebsiella aerogenes, K9911729, no BLI
[19] = tested on: P. aeruginosa ATCC27853; test: BLI potentiation MIC (broth microdilution), P. aeruginosa ATCC27853 (PoxB, AmpC); conditions: no BLI, incubation 19 h; for MIC: Pseudomonas aeruginosa, ATCC27853, 19 h
Description: as §1, §2

[20] = tested on: K. pneumoniae 3784; test: BLI potentiation MIC, K. pneumoniae 3784 (SHV-11, SHV-12, DHA-1); conditions: no BLI, incubation 19 h; for MIC: Klebsiella pneumoniae, 3784, 19 h
Description: as §1, §2

[21] = tested on: K. pneumoniae 4248; test: BLI potentiation MIC, K. pneumoniae 4248 (SHV-11, CTX-M-15, TEM-1, OXA-1); conditions: no BLI, incubation 19 h; for MIC: Klebsiella pneumoniae, 4248, 19 h
Description: as §1, §2

[22] = tested on: K. pneumoniae CL5761; test: MIC of strain used for extraction of enzymes, K. pneumoniae CL5761 (KPC-3, TEM-216, SHV-5); conditions: Klebsiella pneumoniae, CL5761, no BLI
Description: as §1, §2

[23] = tested on: K. pneumoniae 4006; test: BLI potentiation MIC, K. pneumoniae 4006 (SHV-12, CTX-M-15, TEM-1, OXA-9); conditions: no BLI, incubation 19 h
Description: as §1, §2

[24] = tested on: K. pneumoniae ATCC700603; test: BLI potentiation MIC, K. pneumoniae ATCC700603 (SHV-3); conditions: no BLI, incubation 19 h
Description: as §1, §2

[25] = tested on: K. pneumoniae 6540; test: BLI potentiation MIC, K. pneumoniae 6540; conditions: no BLI, incubation 19 h
Description: as §1, §2

[26] = read-out: MIC of LCB10-0200 alone
[27] = read-out: MIC of Meropenem alone

CC(C)(O/N=C(\C(=O)N[C@@H]1C(=O)N2C(C(=O)[O-])=C(C[n+]3cnc(N)c(NCCNC(=O)c4cc(=O)c(O)cn4O)c3)CS[C@H]12)c1nc(N)sc1Cl)C(=O)O [LCB10-0200]
MIC [1, 26]: 0.125 µg/mL | MIC of LCB10-0200 alone [1]: 0.25 μg/mL | MIC [2, 26]: > 64 µg/mL | MIC of LCB10-0200 alone [2]: 64 μg/mL and 32 μg/mL | MIC [3, 26]: 0.125 µg/mL | MIC of LCB10-0200 alone [3]: 0.25 μg/mL | MIC ([4]; Klebsiella pneumoniae, 89, 19 h, read-out: MIC of LCB10-0200 alone): 0.125 µg/mL | MIC of LCB10-0200 alone [4]: 0.0625 μg/mL | MIC [5, 26]: > 64 µg/mL | MIC of LCB10-0200 alone [5]: 64 μg/mL and 32 μg/mL | MIC [6, 26]: 2 µg/mL | MIC [7, 26]: 16 µg/mL | MIC of LCB10-0200 alone [7]: 32 μg/mL | MIC [8, 26]: 0.0625 µg/mL | MIC [9, 26]: 64 µg/mL | MIC [10, 26]: 32 µg/mL | MIC of LCB10-0200 alone [10]: 16 μg/mL | MIC [11, 26]: 32 µg/mL | MIC of LCB10-0200 alone [11]: 64 μg/mL | MIC ([12]; Klebsiella pneumoniae, 7586, 19 h, read-out: MIC of LCB10-0200 alone): 4 µg/mL | MIC of LCB10-0200 alone [12]: 2 μg/mL | MIC [13, 26]: 32 µg/mL | MIC [14, 26]: 0.25 µg/mL | MIC of LCB10-0200 alone [14]: 0.5 μg/mL | MIC ([15]; TOPDXA048, read-out: MIC of LCB10-0200 alone): 0.25 µg/mL | MIC ([16]; ECO200, read-out: MIC of LCB10-0200 alone): > 64 µg/mL | MIC [17, 26]: > 64 µg/mL | MIC [18, 26]: 2 µg/mL | MIC [19, 26]: 0.25 µg/mL | MIC of LCB10-0200 alone [19]: 0.5 μg/mL | MIC [20, 26]: 32 µg/mL | MIC of LCB10-0200 alone [20]: 64 μg/mL | MIC [21, 26]: 2 µg/mL | MIC of LCB10-0200 alone [21]: 4 μg/mL | MIC [22, 26]: 32 µg/mL

C[C@@H](O)[C@H]1C(=O)N2C(C(=O)O)=C(S[C@@H]3CN[C@H](C(=O)N(C)C)C3)[C@H](C)[C@H]12 [Meropenem]
MIC [1, 27]: > 64 µg/mL | MIC of Meropenem alone [1]: 64 µg/mL | MIC [2, 27]: 1 µg/mL | MIC of Meropenem alone [2]: 2 µg/mL | MIC [3, 27]: 8 µg/mL | MIC of Meropenem alone [3]: 4 µg/mL | MIC [5, 27]: 64 µg/mL | MIC of Meropenem alone [5]: 32 µg/mL | MIC [6, 27]: 64 µg/mL | MIC [7, 27]: > 64 µg/mL | MIC of Meropenem alone [7]: 64 µg/mL and 32 µg/mL | MIC [8, 27]: 4 µg/mL | MIC ([23]; Klebsiella pneumoniae, 4006, 19 h, read-out: MIC of Meropenem alone): 0.5 µg/mL | MIC of Meropenem alone [23]: 1 µg/mL | MIC [9, 27]: 1 µg/mL | MIC [10, 27]: 4 µg/mL | MIC of Meropenem alone [10]: 2 µg/mL | MIC [11, 27]: 64 µg/mL | MIC of Meropenem alone [11]: 32 µg/mL | MIC [13, 27]: > 64 µg/mL | MIC ([24]; Klebsiella pneumoniae, ATCC700603, 19 h, read-out: MIC of Meropenem alone): 0.125 µg/mL | MIC of Meropenem alone [24]: 0.25 µg/mL | MIC ([25]; Klebsiella pneumoniae, 6540, 19 h, read-out: MIC of Meropenem alone): 1 µg/mL | MIC of Meropenem alone [25]: 0.5 µg/mL | MIC [14, 27]: > 64 µg/mL | MIC ([15]; TOPDXA048, read-out: MIC of Meropenem alone): 0.25 µg/mL | MIC ([16]; ECO200, read-out: MIC of Meropenem alone): > 64 µg/mL | MIC [17, 27]: > 64 µg/mL | MIC [18, 27]: 0.5 µg/mL | MIC [19, 27]: 2 µg/mL | MIC [20, 27]: 2 µg/mL | MIC [21, 27]: 0.125 µg/mL | MIC [22, 27]: > 64 µg/mL
